We go through one compound from publication PMC12189828, “Substitution of Proline Residues by 4-Fluoro-L-Proline Affects the Mechanism of the Proline-Rich Antimicrobial Peptide Api137” (Antibiotics, 2025).

The subject of one data set is E. coli RN31. As to the kind of experiment: Minimum inhibitory concentration (MIC) against E. coli RN31. The settings on record: E. coli RN31, 33% TSB, 37 °C overnight (~16 h), 7.5 × 10^6 bacteria/mL; two independent experiments with two replicates each (n = 4). The class given is cell-based, Escherichia coli. On the procedure: Minimum inhibitory concentrations were determined for E. coli RN31 grown in 33% TSB (37 °C, 200 rpm) with a starting OD600 of 0.05. After four hours, the cell count was adjusted to 1.5 × 10^7 bacteria/mL. In a transparent 96-well plate, the peptides were diluted in a two-fold dilution series in 33% TSB over 10 dilution steps, and E. coli was added to obtain a final cell count of 7.5 × 10^6 bacteria/mL and incubated at 37 °C overnight. OD600 was determined using a PARADIGM^TM microplate reader (Beckman Coulter, Salzburg, Austria) before and after cultivation. The MIC was defined as the lowest peptide concentration preventing visible bacterial growth.

For data set [1], the system named is 50S subunit assembly / 70S ribosome in E. coli RN31. Description: Ribosome profile analysis (RPA), sucrose gradient of E. coli RN31 lysate. It is filed as cell-based, Escherichia coli. The settings on record: 90 min.
The next data set concerns mice. To be noted: cited from earlier work.

SMILES strings stand for the structures. Values after ≈ are worked out from the molar mass of the structure shown. Where a SMILES comes first, the peptide text is derived from it. The star is where a group is joined. Orn(α-tetramethylguanidino) = CN(C)C(=N[C@@H](CCCN)C(=O)*)N(C)C

Take `CC[C@H](C)[C@H](NC(=O)[C@H](Cc1ccc(O)cc1)NC(=O)[C@@H](NC(=O)[C@@H]1CCCN1C(=O)[C@H](CCCNC(=N)N)NC(=O)[C@H](CC(N)=O)NC(=O)[C@H](CC(N)=O)NC(=O)[C@H](CCCN)N=C(N(C)C)N(C)C)C(C)C)C(=O)N1CCC[C@H]1C(=O)N[C@@H](CCCNC(=N)N)C(=O)N1CCC[C@H]1C(=O)N[C@@H](CCCNC(=N)N)C(=O)N1CCC[C@H]1C(=O)N1CCC[C@H]1C(=O)N[C@@H](Cc1c[nH]cn1)C(=O)N1CCC[C@H]1C(=O)N[C@@H](CCCNC(=N)N)C(=O)N[C@@H](CC(C)C)C(=O)O` [Api137] ({Orn(α-tetramethylguanidino)}-NNRPVYIPRPRPPHPRL-OH; N-terminus and C-terminus assumed): the MIC against E. coli RN31 turned out to be 4 µg/mL (≈ 1.75 µM). In addition, the “RPA [pre-50S formation]” value in data set [1] (E. coli RN31, 33% TSB, peptide 8 µg/mL, 5–25% sucrose gradient, n = 2 (Api137 n = 7)) is reported as “yes”. For the same compound, the “70S peak (area) relative to untreated control” value in data set [1] (E. coli RN31, peptide 8 µg/mL, sucrose gradient profile) is given as ~ 50%. Besides, in the data set on mice, the tolerability in mice result was “well tolerated”.

Broadly, the MIC is the smallest concentration in the dilution series that meets the test's criterion for growth inhibition. Low readings indicate greater potency, high ones weaker potency.
